Test results as given in ChEMBL document CHEMBL1201862, “PubChem BioAssay data set” (2004).
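Tested at 5 concentrations; 48 h exposure; 96-well plates; endpoints linearly interpolated, else capped at highest concentration. GI50 is the concentration that inhibits growth by half.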 The source made the active and inactive calls. Rule as the data show it: active = GI50 up to about 1.1 µM and inactive = higher.

Legend:
Experiment in all cases: growth of human tumour cells (NCI), 48 h
786-0 = tested on: 786-0
A498 = tested on: A498
A549 = tested on: A549
BT-549 = tested on: BT-549
DU-145 = tested on: DU-145
HCT-15 = tested on: HCT-15
IGROV-1 = tested on: IGROV-1
LOX IMVI = tested on: LOX IMVI
MDA-MB-435 = tested on: MDA-MB-435
NCI-H23 = tested on: NCI-H23
NCI-H460 = tested on: NCI-H460
NCI-H522 = tested on: NCI-H522
OVCAR-4 = tested on: OVCAR-4
RPMI-8226 = tested on: RPMI-8226
SF-268 = tested on: SF-268
SK-MEL-28 = tested on: SK-MEL-28
SK-OV-3 = tested on: SK-OV-3
SN12C = tested on: SN12C
SW-620 = tested on: SW-620
UACC-62 = tested on: UACC-62

Measured: GI50

COc1ccc(S(=O)(=O)O)cc1NS(=O)(=O)c1ccc(C)cc1
inactive: 786-0 > 100 µM | A498 > 100 µM | A549 > 100 µM | BT-549 > 100 µM | DU-145 > 100 µM | IGROV-1 > 100 µM | LOX IMVI > 100 µM | MDA-MB-435 > 100 µM | NCI-H23 > 100 µM | NCI-H460 > 100 µM | NCI-H522 > 100 µM | OVCAR-4 > 100 µM | RPMI-8226 > 100 µM | SF-268 > 100 µM | SK-MEL-28 > 100 µM | SK-OV-3 > 100 µM | SN12C > 100 µM | SW-620 > 100 µM | UACC-62 > 100 µM
> 100 µM: HCT-15

O=C(O)C1CC(c2ccccc2)=NN1c1ccccc1 (stereo not given)
inactive: 786-0 56.9 µM | A498 51.4 µM | A549 70 µM | BT-549 66.5 µM | DU-145 96.8 µM | IGROV-1 > 100 µM | LOX IMVI 41.9 µM | MDA-MB-435 63.4 µM | NCI-H23 52.6 µM | NCI-H460 54.7 µM | NCI-H522 27.4 µM | OVCAR-4 67.6 µM | RPMI-8226 40.3 µM | SF-268 81.1 µM | SK-MEL-28 > 100 µM | SK-OV-3 > 100 µM | SN12C > 100 µM | SW-620 92.3 µM | UACC-62 > 100 µM
34 µM: HCT-15

Cc1c(S(=O)(=O)O)ccc(/N=N/c2c(O)c(C(=O)O)cc3ccccc23)c1Cl
> 100 µM: HCT-15
inactive: 786-0 > 89.3 µM | A498 > 100 µM | A549 > 100 µM | BT-549 > 100 µM | DU-145 > 100 µM | IGROV-1 > 100 µM | LOX IMVI > 100 µM | MDA-MB-435 > 100 µM | NCI-H23 > 100 µM | NCI-H460 > 100 µM | NCI-H522 > 100 µM | OVCAR-4 > 100 µM | RPMI-8226 > 100 µM | SF-268 > 100 µM | SK-MEL-28 > 100 µM | SK-OV-3 > 100 µM | SN12C > 100 µM | SW-620 > 100 µM | UACC-62 > 100 µM

O=C(CCN1CCCC1)Nc1ccc2sc3ccccc3c(=O)c2n1
11.5 µM: HCT-15
inactive: 786-0 11.7 µM | A498 17.8 µM | A549 12.3 µM | BT-549 13.6 µM | DU-145 15.4 µM | IGROV-1 15.2 µM | LOX IMVI > 10 µM | MDA-MB-435 12.7 µM | NCI-H23 13.1 µM | NCI-H460 > 10 µM | NCI-H522 10.5 µM | OVCAR-4 13.2 µM | RPMI-8226 12 µM | SF-268 17.2 µM | SK-MEL-28 14.3 µM | SK-OV-3 7.23 µM | SN12C 10.1 µM | SW-620 12.4 µM | UACC-62 12.6 µM

COc1ccc(-c2oc3c(OC)c(OC)c(OC)c(O)c3c(=O)c2OC)cc1OC
14 µM: HCT-15
inactive: 786-0 25.4 µM | A498 19.9 µM | A549 27.5 µM | BT-549 34.4 µM | DU-145 36.2 µM | IGROV-1 3.15 µM | LOX IMVI 11 µM | MDA-MB-435 4.69 µM | NCI-H23 31.1 µM | NCI-H460 17.8 µM | NCI-H522 14.3 µM | OVCAR-4 26.5 µM | RPMI-8226 16.7 µM | SF-268 9.33 µM | SK-MEL-28 32.2 µM | SK-OV-3 8.2 µM | SN12C 26.2 µM | SW-620 20.8 µM | UACC-62 21.8 µM
